# Patent US7022736B2, “Enzyme inhibitors” (Istituto Di Ricerche Di Biologia Molecolare P Angeletti SpA, priority 1998, dated 2006)
# Read-outs that look alike come from different tables or passages of the source.
# Legend:
# [1] = biological target: T1, HCV RdRp (NS5B RNA-dependent RNA polymerase) (Hepatitis C virus genotype 1b, UniProt P26663); assay: Inhibition of hepatitis C virus RdRp (poly(A)/oligo(U), [3H]UTP incorporation); format: biochemical
# T1 construct: The HCV NS5B protein is the viral RdRp; made in house; host or cells: insect cells infected with recombinant baculovirus
# T1 sequence (P26663 2420-3010): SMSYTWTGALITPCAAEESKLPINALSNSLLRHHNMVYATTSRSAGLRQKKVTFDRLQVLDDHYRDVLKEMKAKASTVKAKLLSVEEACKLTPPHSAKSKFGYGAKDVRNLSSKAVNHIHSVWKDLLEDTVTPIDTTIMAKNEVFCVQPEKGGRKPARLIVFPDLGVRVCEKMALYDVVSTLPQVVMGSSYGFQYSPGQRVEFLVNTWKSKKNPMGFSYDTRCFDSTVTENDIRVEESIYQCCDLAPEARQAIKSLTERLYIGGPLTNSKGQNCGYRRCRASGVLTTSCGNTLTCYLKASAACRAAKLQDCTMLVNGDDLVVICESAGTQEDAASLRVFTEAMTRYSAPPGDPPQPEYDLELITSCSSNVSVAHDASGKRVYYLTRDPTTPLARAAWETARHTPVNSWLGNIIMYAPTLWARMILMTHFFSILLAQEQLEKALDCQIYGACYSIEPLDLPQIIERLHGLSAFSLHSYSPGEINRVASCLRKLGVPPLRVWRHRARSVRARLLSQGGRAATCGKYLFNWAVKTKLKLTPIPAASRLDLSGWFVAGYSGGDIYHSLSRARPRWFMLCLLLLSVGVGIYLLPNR
# Procedure, shortened: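 Baculovirus-expressed recombinant NS5B (20 nM) polymerised on poly(A) template (10 μg/ml) with oligo(U)12 primer, 10 μM UTP plus [3H]UTP, pH 7.5 Tris buffer with 5 mM MgCl2, 1 h at 22 °C. Acid-insoluble radioactivity counted on filters; IC50 fitted from residual activity with slope term.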
# [2] = biological target: T2, reverse transcriptase of HIV (HIV-1 RT) (Human immunodeficiency virus type 1 group M subtype B, UniProt P03366); assay: Inhibition of HIV-1 reverse transcriptase ([3H]dTTP incorporation); format: biochemical, Human Immunodeficiency Virus-1; settings: Tables IXa-IXc; unit inferred; NA=not active as an inhibitor
# T2 construct: the reverse transcriptase of HIV (HIV -1RT) from Boehringer Mannhium; purchased Boehringer Mannheim (printed 'Boehringer Mannhium')
# Description: Test for Inhibition of Human Immunodeficiency Virus-1 Reverse Transcriptase
# Analogous assays employed the reverse transcriptase of HIV (HIV -1RT) from Boehringer Mannhium.
# Incorporation of radioactive dTTP was measured as follows. The standard reaction (100 μl) was carried out in a buffer containing 50 mM tris/HCl pH 8.2, 2.5 mM MgCl 2, 1 mM DTT, 80 mM KCl, 5 mM EGTA, 0.05% Triton X-100, 1 μCi[3H] dTTP (40 Ci/mmol, NEN), 10 μM […] and 10 μg/ml poly(A)/dT (from Pharmacia).
# [3] = biological target: T3, polymerase of hepatitis B virus (HBV pol) (Hepatitis B virus genotype D subtype ayw, UniProt P03156); assay: Inhibition of hepatitis B virus polymerase (32P-dNTP incorporation, viral particles from patient sera); format: biochemical; settings: Tables IXa-IXc; unit inferred; NA=not active as an inhibitor
# T3 construct: obtained in the form of viral particles from the sera of HBV positive patients; from tissue; host or cells: sera of HBV positive patients (viral particles)
# T3 sequence (P03156 whole entry): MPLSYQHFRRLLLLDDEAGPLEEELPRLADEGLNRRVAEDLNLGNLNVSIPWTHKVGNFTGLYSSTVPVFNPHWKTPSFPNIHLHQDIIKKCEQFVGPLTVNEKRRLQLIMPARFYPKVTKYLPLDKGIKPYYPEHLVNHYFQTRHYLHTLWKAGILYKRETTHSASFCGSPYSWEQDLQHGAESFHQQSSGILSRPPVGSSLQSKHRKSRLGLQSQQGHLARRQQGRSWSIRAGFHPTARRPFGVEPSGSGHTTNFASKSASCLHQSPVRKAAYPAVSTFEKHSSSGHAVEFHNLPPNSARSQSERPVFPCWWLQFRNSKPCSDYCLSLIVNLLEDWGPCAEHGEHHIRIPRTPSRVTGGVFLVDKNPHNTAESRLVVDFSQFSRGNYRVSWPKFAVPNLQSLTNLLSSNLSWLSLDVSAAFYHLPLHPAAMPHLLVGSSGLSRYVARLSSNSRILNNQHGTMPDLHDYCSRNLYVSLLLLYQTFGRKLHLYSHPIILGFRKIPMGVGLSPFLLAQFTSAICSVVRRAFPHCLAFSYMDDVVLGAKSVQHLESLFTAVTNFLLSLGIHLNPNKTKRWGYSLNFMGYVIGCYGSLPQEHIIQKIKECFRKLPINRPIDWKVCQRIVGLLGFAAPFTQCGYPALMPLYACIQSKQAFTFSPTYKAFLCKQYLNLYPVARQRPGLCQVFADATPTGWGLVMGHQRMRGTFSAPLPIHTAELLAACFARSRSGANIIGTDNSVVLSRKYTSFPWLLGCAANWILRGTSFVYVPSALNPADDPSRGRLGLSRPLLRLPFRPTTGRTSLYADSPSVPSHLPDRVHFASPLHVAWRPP
# Description: Analogous assays employed the polymerase of hepatitis B virus (HBV pol), obtained in the form of viral particles from the sera of HBV positive patients. These particles contain a polymerase bound to an incomplete double stranded DNA template. In the assay the incorporation of ^32P-dNTP is measured as radioactivity incorporated in acid insoluble precipitate.
# The standard reaction (100 μl) was carried out in a buffer containing 50 mM tris/HCl pH 7.5, 30 mM MgCl 2 , 1 mM DTT, 100 mM KCl, 0.02% Triton X-100, 1 μCi[^32P] dCTP (300 Ci/mmol, NEN), 1 μM dATP, dTTP, dGTP. After 1 hour incubation at 37° C. the reaction was stopped by adding 100 μl of 20% TCA and applying samples to DE81 filters. The filters were processed and IC50 values calculated as described above.
# [4] = Tables I-VIII, 20 nM NS5B, 1 hour at 22° C., read-out: IC 50 (μM), HCV-polymerase
# [5] = Tables IXa-IXc, unit inferred, read-out: HCV (IC50)
compound,measurement,setting,value
O=C(O)C(O)=CC(=O)c1ccccc1 [Example 1],IC50,[1]; [4],5.6 µM
same,IC50,[1]; [5],5.6 µM
same,IC50,[2],90 µM
O=C(O)C(O)=CC(=O)c1cccc(OCc2ccccc2)c1 [Example 4],IC50,[1]; [4],8 µM
same,IC50,[1]; [5],8 µM
same,IC50,[2],> 100 µM
O=C(O)C(O)=CC(=O)c1cccc(OCc2c(F)cccc2F)c1 [Example 7],IC50,[1]; [4],2.92 µM
same,IC50,[1]; [5],3.3 µM
same,IC50,[2],61 µM
O=C(O)C(O)=CC(=O)c1ccccc1OCc1ccccc1 [Example 8],IC50,[1]; [4],44 µM
same,IC50,[1]; [5],44 µM
same,IC50,[2],19 µM
C=CCOc1ccccc1C(=O)C=C(O)C(=O)O [Example 16],IC50,[1]; [4],4.3 µM
same,IC50,[1]; [5],4.3 µM
same,IC50,[2],> 100 µM
O=C(O)C(O)=CC(=O)c1cccc(OCCc2ccccc2)c1 [Example 18],IC50,[1]; [4],2.2 µM
same,IC50,[1]; [5],2.2 µM
same,IC50,[2],30 µM
Cc1cccc(C(=O)C=C(O)C(=O)O)c1 [Example 19],IC50,[1]; [4],11.9 µM
same,IC50,[1]; [5],12 µM
same,IC50,[2],77 µM
N#CCCCOc1ccccc1C(=O)C=C(O)C(=O)O [Example 20],IC50,[1]; [4],0.38 µM
same,IC50,[1]; [5],0.38 µM
same,IC50,[2],27 µM
Cc1ccc(OCCCC#N)c(C(=O)C=C(O)C(=O)O)c1 [Example 21],IC50,[1]; [4],0.955 µM
same,IC50,[1]; [5],1 µM
same,IC50,[2],> 50 µM
O=C(O)C(O)=CC(=O)c1cccc(O)c1 [Example 23],IC50,[1]; [4],0.94 µM
same,IC50,[1]; [5],1 µM
same,IC50,[2],59 µM
O=C(O)C(=O)Nc1cccc(C(=O)C=C(O)C(=O)O)c1 [Example 24],IC50,[1]; [4],19 µM
same,IC50,[1]; [5],19 µM
same,IC50,[2],71 µM
O=C(O)CCCOc1ccccc1C(=O)C=C(O)C(=O)O [Example 27],IC50,[1]; [4],2.84 µM
same,IC50,[1]; [5],3 µM
same,IC50,[2],> 50 µM
N#CCCCOc1ccc(Cl)cc1C(=O)C=C(O)C(=O)O [Example 36],IC50,[1]; [4],1.6 µM
same,IC50,[1]; [5],1.6 µM
same,IC50,[2],24 µM
O=C(O)C(O)=CC(=O)c1ccccc1Cc1ccc(F)cc1 [Example 40],IC50,[1]; [4],8.3 µM
same,IC50,[1]; [5],8.3 µM
same,IC50,[2],12 µM
N#CCCCOc1ccc(O)cc1C(=O)C=C(O)C(=O)O [Example 53],IC50,[1]; [4],0.115 µM
same,IC50,[1]; [5],0.115 µM
same,IC50,[2],37 µM
O=C(O)C(O)=CC(=O)c1cccc(NS(=O)(=O)c2cccc3ccccc23)c1 [Example 78],IC50,[1]; [4],0.67 µM
same,IC50,[1]; [5],0.67 µM
same,IC50,[2],35 µM
N#Cc1cccc(Cl)c1COc1cccc(C(=O)C=C(O)C(=O)O)c1 [Example 107],IC50,[1]; [4],0.14 µM
same,IC50,[1]; [5],0.14 µM
same,IC50,[2],58 µM
COc1cc(C)c(C#N)c(COc2cccc(C(=O)C=C(O)C(=O)O)c2)c1 [Example 111],IC50,[1]; [4],0.12 µM
same,IC50,[1]; [5],0.12 µM
same,IC50,[2],80 µM
N#Cc1ccccc1OCc1cccc(C(=O)C=C(O)C(=O)O)c1 [Example 112],IC50,[1]; [4],1.33 µM
same,IC50,[1]; [5],1.33 µM
same,IC50,[2],90 µM
N#Cc1ccc(Br)cc1COc1cccc(C(=O)C=C(O)C(=O)O)c1 [Example 113],IC50,[1]; [4],0.1 µM
same,IC50,[1]; [5],0.1 µM
same,IC50,[2],90 µM
O=C(O)C(O)=CC(=O)c1cccc(NS(=O)(=O)c2cc(Cl)cc(Cl)c2)c1 [Example 117],IC50,[1]; [4],0.14 µM
same,IC50,[1]; [5],0.14 µM
same,IC50,[2],100 µM
O=C(O)C(O)=CC(=O)c1cccc(NS(=O)(=O)c2c(Cl)cccc2Cl)c1 [Example 120],IC50,[1]; [4],0.36 µM
same,IC50,[1]; [5],0.36 µM
same,IC50,[2],80 µM
N#Cc1c(Cl)cc(Cl)cc1COc1cccc(C(=O)C=C(O)C(=O)O)c1 [Example 126],IC50,[1]; [4],0.056 µM
same,IC50,[1]; [5],0.056 µM
same,IC50,[2],100 µM
O=C(O)C(O)=CC(=O)c1cc(O)cc(OCc2ccccc2)c1 [Example 155],IC50,[1]; [4],1.4 µM
same,IC50,[1]; [5],1.4 µM
same,IC50,[2],130 µM
Cc1ccc(C(=O)C=C(O)C(=O)O)cc1 [Example 161],IC50,[1]; [4],2.8 µM
same,IC50,[1]; [5],2.8 µM
same,IC50,[2],320 µM
O=C(O)C(O)=CC(=O)c1ccc(-c2ccccc2)s1 [Example 196],IC50,[1]; [4],15 µM
same,IC50,[1]; [5],15 µM
same,IC50,[3],9 µM
same,IC50,[2],50 µM
O=C(O)C(O)=CC(=O)c1ccc(Cc2ccccc2)s1 [Example 202],IC50,[1]; [4],68 µM
same,IC50,[1]; [5],70 µM
same,IC50,[3],9 µM
same,IC50,[2],> 100 µM
O=C(O)C(O)=CC(=O)c1ccc(Cc2cccc(F)c2)s1 [Example 205],IC50,[1]; [4],74 µM
same,IC50,[1]; [5],74 µM
same,IC50,[3],3.3 µM
O=C(O)C(O)=CC(=O)c1ccc(Cc2ccc(F)cc2)s1 [Example 206],IC50,[1]; [4],65 µM
same,IC50,[1]; [5],65 µM
same,IC50,[3],2 µM
O=C(O)C(O)=CC(=O)c1ccc(-c2ccc(F)c(Cl)c2)o1 [Example 218],IC50,[1]; [4],41.2 µM
same,IC50,[1]; [5],41.2 µM
same,IC50,[2],11.8 µM
Cc1sc(-c2ccccc2)cc1C(=O)C=C(O)C(=O)O [Example 225],IC50,[1]; [4],167 µM
same,IC50,[1]; [5],167 µM
same,IC50,[3],4 µM
same,IC50,[2],86 µM
O=C(O)C(O)=CC(=O)c1ccsc1Cc1cccc(F)c1 [Example 229],IC50,[1]; [4],80 µM
O=C(O)C(O)=CC(=O)c1ccsc1Cc1ccccc1F [Example 230],IC50,[1]; [4],8.6 µM
O=C(O)C(O)=CC(=O)c1ccsc1Cc1ccc(Cl)cc1 [Example 231],IC50,[1]; [4],9.4 µM
O=C(O)C(O)=CC(=O)c1ccsc1Cc1cccc(Cl)c1 [Example 232],IC50,[1]; [4],11.8 µM
O=C(O)C(O)=CC(=O)c1ccsc1Cc1ccccc1Cl [Example 233],IC50,[1]; [4],9.2 µM
O=C(O)C(O)=CC(=O)c1ccsc1Sc1ccc(F)cc1 [Example 234],IC50,[1]; [4],14.5 µM
O=C(O)C(O)=CC(=O)c1ccsc1Sc1cccc(Cl)c1 [Example 235],IC50,[1]; [4],7.5 µM
O=C(O)C(O)=CC(=O)c1csc2ccccc12 [Example 236],IC50,[1]; [4],26 µM
Cc1cc(C(=O)C=C(O)C(=O)O)c(C)o1 [Example 237],IC50,[1]; [4],14 µM
CC1(C(=O)C=C(O)C(=O)O)CC1 [Example 239],IC50,[1]; [4],9.4 µM
CCC(C)C(=O)/C=C(\O)C(=O)O (stereo not shown) [Example 240],IC50,[1]; [4],18 µM
CC(C)(C)C(=O)C=C(O)C(=O)O [Example 241],IC50,[1]; [4],37 µM
CC1=CCC(C(=O)C=C(O)C(=O)O)CC1 (stereo not shown) [Example 242],IC50,[1]; [4],12.8 µM
O=C(O)C(O)=CC(=O)C12CC3CC(CC(C3)C1)C2 [Example 243],IC50,[1]; [4],6.7 µM
same,IC50,[1]; [5],6.7 µM
same,IC50,[2],26.8 µM
O=C(O)C(O)=CC(=O)C(c1ccccc1)c1ccccc1 [Example 244],IC50,[1]; [4],77 µM
CCCCS(=O)(=O)N1CCCC(Cc2ccc(Cl)cc2)(C(=O)C=C(O)C(=O)O)C1 (stereo not shown) [Example 245],IC50,[1]; [4],81.4 µM
O=C(O)C(O)=CC(=O)C1(c2ccccc2)CCN(S(=O)(=O)c2cccc(Cl)c2)CC1 [Example 246],IC50,[1]; [4],18 µM
O=C(O)/C(O)=C/C(=O)C1(Cc2ccc(Cl)cc2)CCCN(Cc2ccccc2)C1 (stereo not shown) [Example 247],IC50,[1]; [4],45 µM
O=C(O)C(O)=CC(=O)C1(c2ccccc2)CCN(S(=O)(=O)c2cccc3cccnc23)CC1 [Example 248],IC50,[1]; [4],10 µM
O=C(O)C(O)=CC(=O)C1(c2ccccc2)CCN(C(=O)N(c2ccccc2)c2ccccc2)CC1 [Example 249],IC50,[1]; [4],60 µM
O=C(O)C(O)=CC(=O)C1(c2ccccc2)CCN(S(=O)(=O)c2ccc(Cl)c(Cl)c2)CC1 [Example 250],IC50,[1]; [4],17 µM
O=C(O)C(O)=CC(=O)C1(c2ccccc2)CCN(S(=O)(=O)c2cc(Cl)c(Cl)cc2Cl)CC1 [Example 251],IC50,[1]; [4],21 µM
O=C(O)/C(O)=C/C(=O)C1(Cc2ccc(Cl)cc2)CCCN(S(=O)(=O)c2ccc(Br)cc2)C1 (stereo not shown) [Example 252],IC50,[1]; [4],61 µM
O=C(O)C(O)=CC(=O)C1=CCCCC1 [Example 254],IC50,[1]; [4],14 µM
CC1=C(C(=O)C=C(O)C(=O)O)CCC1 [Example 255],IC50,[1]; [4],16.7 µM
O=C(O)C(O)=CC(=O)C1CCCCC1 [Example 256],IC50,[1]; [4],25 µM
O=C(C=C(O)C(=O)O)CC1CCCCC1 [Example 257],IC50,[1]; [4],50 µM
O=C(O)C(O)=CC(=O)c1ccc(-c2cc(Cl)cc(Cl)c2)o1 [Example 258],IC50,[1]; [5],> 100 µM
same,IC50,[2],3.6 µM
